Like-named read-outs stand apart in the source and are kept apart here.
Legend:
[1] = system: instantaneous inward-rectifier current; assay: Whole-cell patch-clamp of instantaneous inward-rectifier current in canine cardiomyocytes; format: cell-based; settings: at −120 mV, extracellular ion
Protocol: (§1) Adult mongrel dogs of either sex (weighing about 20-35 kg) were anaesthetized with pentobarbital (30 mg kg^−1 I.V.) and artificially ventilated with room air. Hearts and adjacent lung tissue were relatively quickly excised through a left lateral thoracotomy and immersed in oxygenated Tyrode solution (composition detailed hereinbelow) at room temperature. […] A left atrial (LA) preparation with the PVs intact was perfused via the left circumflex coronary artery, and subjected to either standard fine-tipped microelectrode recording of action potentials (APs) or cardiomyocyte isolation with collagenase-containing solutions, as previously described (Ehrlich et al. 2003). Six dogs were subjected to atrial tachycardia-induced remodeling induced by 1 week of atrial pacing at about 400 beats min^−1 after ablation of the AV node, as described in Li et al. 1999. Animal care and handling procedures followed the guidelines of the Canadian Council on Animal Care.
To isolate LA and PV cardiomyocytes, the proximal circumflex artery was cannulated and the distal ends of PV myocardial sleeves (approximately 1-1.5 cm from the PV-LA junction) were marked with silk thread prior to subsequent enzyme perfusion with collagenase (100 U ml^−1, Worthington, type II), in order to facilitate localization of PV sleeves after enzymatic digestion. […] All comparisons were based on PV and LA cardiomyocytes isolated from each dog on each experimental day. After isolation, cells were stored at 4° C. and studied on the same day. […]
Currents were recorded with the whole-cell patch-clamp technique at 36±0.5° C., as described in Yue et al. 1996. […] Capacitance was assessed using 5 mV, 10 ms hyperpolarizing steps from a holding potential (HP) of −60 mV. […]
Currents were recorded with hyperpolarizing and depolarizing pulses (generally 4 s duration) from a HP of −40 mV to selected test potentials (TPs). […] For the determination of reversal potentials, tail currents were recorded after 1.6 s pulses to −120 mV followed by 3.2 s depolarizations to TPs between −110 and +20. […]

IKH = format: cell-based, canine; settings: for IC50: extracellular ion, read-out: IC50 for time-dependent IKH; for effect on IKH (in words): substance alone; for IKH mean current density: at −100 mV; for increase of IKH tail currents: following a pulse to −120 mV; for IKH tail current: following hyperpolarization to −120 mV; for IKH activation by carbachol after pertussis toxin pretreatment (in words): 1.5 mg l−1 PTX, 37° C., at least 9 h
Protocol: as §1
To isolate LA and PV cardiomyocytes, the proximal circumflex artery was cannulated and the distal ends of PV myocardial sleeves (approximately 1-1.5 cm from the PV-LA junction) were marked with silk thread prior to subsequent enzyme perfusion with collagenase (100 U ml^−1, Worthington, type II), in order to facilitate localization of PV sleeves after enzymatic digestion. […] All comparisons were based on PV and LA cardiomyocytes isolated from each dog on each experimental day. After isolation, cells were stored at 4° C. and studied on the same day. For standard microelectrode experiments, intact tissue preparations including the LA and adjacent PVs were mounted in a chamber and perfused via the circumflex artery with oxygenated Krebs solution at 36±0.5° C. (see for example Kneller et al. 2002).
(§2) Currents were recorded with the whole-cell patch-clamp technique at 36±0.5° C., as described in Yue et al. 1996. All junction potentials were zeroed prior to formation of gigaohm seals. […] Capacitance was assessed using 5 mV, 10 ms hyperpolarizing steps from a holding potential (HP) of −60 mV. […] Original recordings are shown in terms of current amplitude, but mean data are presented as current density (pA pF−1) to control for variability in cell size.
(§3) Currents were recorded with hyperpolarizing and depolarizing pulses (generally 4 s duration) from a HP of −40 mV to selected test potentials (TPs). Recordings were repeated 3 times, and mean values obtained. For the determination of reversal potentials, tail currents were recorded after 1.6 s pulses to −120 mV followed by 3.2 s depolarizations to TPs between −110 and +20. All voltage protocols were delivered at 0.1 Hz.
(§4) Tyrode solution contained (mM): NaCl 136, KCl 5.4, MgCl2 1, CaCl2 1, NaH2PO4 0.33, Hepes 5 and dextrose 10 (pH 7.35 with NaOH). The cell-storage solution contained (mM): KCl 20, KH2PO4 10, dextrose 10, mannitol 40, L-glutamic acid 70, β-OH-butyric acid 10, taurine 20, EGTA 10 and 0.1% bovine serum albumin (pH 7.3, KOH). Nifedipine (5 μM) was used to suppress L-type Ca^2+ current (ICa) in all experiments. 4-Aminopyridine (4-AP, 2 mM) was added to suppress transient outward current (Ito). […] Na+ current (INa) contamination was avoided by using a HP of −40 mV for recording of hyperpolarization-induced currents and by substitution of equimolar Tris-HCl for external NaCl for tail-current recordings.

holding current = assay: Holding current in whole-cell patch-clamp of cardiomyocytes; format: cell-based, canine
Protocol: as §2, §3
as §4, with “recordings. When different external K^+ concentrations were applied, the osmolarity was kept constant by proportionate reduction of NaCl content in the solution. The standard internal solution contained (mM): potassium aspartate 110, KCl 20, MgCl2 1, MgATP 5, GTP (lithium salt) 0.1, Hepes 10, sodium phosphocreatine 5 and EGTA 5.0 (pH 7.3 with KOH). In experiments with K+-free internal solution, potassium aspartate was replaced by equimolar caesium aspartate and KCl by CsCl and pH was set to 7.3 with CsOH. For standard-microelectrode experiments, a solution containing (mM): NaCl 120, KCl 4, KH2PO4 1.2, MgSO4 1.2, NaHCO3 25, CaCl2 1.25 and dextrose 5 (95% O2-5% CO2, pH 7.4) was used to perfuse the tissue.” for “recordings.”
Stock solutions of BaCl2 (1 M) and CsCl (1 M) were produced initially and used throughout the experiments. Stock solution of isoproterenol was prepared under protection from light on the day of experiments and freshly prepared ascorbic acid (100 μM) was added in order to prevent isoproterenol oxidization. Carbachol (1 μM) was dissolved in Tyrode solution, tertiapin-Q in 0.1% acetic acid. GTPS (0.1 mM) was used in place of GTP in internal solutions for some experiments. For experiments involving pertussis toxin (PTX, stock solution dissolved in distilled H2O) cells were incubated at 37° C. in 1.5 mg I-1 PTX for at least 9 h prior to experiments. Parallel controls were performed with cells from the same isolates incubated in the same fashion and the same solution, but without PTX. […] Unless otherwise specified, drugs were obtained from Sigma.

Compound: [Ba+2].[Cl-].[Cl-] [Ba^2+, BaCl2]
- IC50 [1]: 76 ± 17.9 µM
- inhibition of IKH (in words) (IKH; 1 μM, most cells): inhibited IKH appreciably
- inhibition of IKH (in words) (IKH; 10 μM): full inhibition
- IC50 (IKH; at −120 mV): 2 ± 0.3 µM

Compound: Nc1nc2c(ncn2[C@@H]2O[C@H](COP(=O)(O)OP(=O)(O)OP(O)(O)=S)[C@@H](O)[C@H]2O)c(=O)[nH]1 [GTPS]
- further IKH response to carbachol with GTPS in the pipette (in words) (IKH; GTPS 0.1 mM in place of GTP): fully prevented
- IKH current density (IKH; at −120 mV, GTPS in pipette, no cholinergic stimulation (regular GTP −3.8±0.6)): −8.2±0.8 pA pF^−1
- effect on IKH (in words) (IKH): increased

Compound: CC(C)NCC(O)c1ccc(O)c(O)c1 (stereo not shown) [isoproterenol]
- increase of holding current (holding current; 10 nM isoproterenol): 59±14%
- holding current (holding current; 10 nM isoproterenol (control 44±11)): 65±14 pA pF−1
- increase of holding current (holding current; 100 nM isoproterenol): 89±33%
- holding current (holding current; 100 nM isoproterenol (control 44±11)): 70±13 pA pF−1
- increase of holding current (holding current; 1000 nM isoproterenol): 144±37%
- holding current (holding current; 1000 nM isoproterenol (control 44±11)): 87±14 pA pF−1
- time to steady-state effect on IKH (IKH; 1 μM isoproterenol, PV cell): ≤ 2 min
- IKH mean current density (IKH; 10 nM isoproterenol (control −0.9±0.1)): −1.2±0.1 pA pF^−1
- IKH mean current density (IKH; 100 nM isoproterenol (control −0.9±0.1)): −1.4±0.2 pA pF^−1
- IKH mean current density (IKH; 1000 nM isoproterenol (control −0.9±0.1)): −1.5±0.1 pA pF^−1
- mean end-pulse current (IKH; at −120 mV, 1 μM isoproterenol in the presence of 200 nM tertiapin-Q): 0.20±0.07 pA pF^−1
- effect on IKH (in words) (IKH): increased

Compound: [Cl-].[Cs+] [Cs^+, CsCl]
- IC50 [1]: 139 ± 34.2 µM
- IC50 (IKH; at −120 mV): 184 ± 18.2 µM

Compound: C[N+](C)(C)CCOC(N)=O [carbachol]
- average increase of IKH (IKH; 1 μM carbachol, voltages between −120 and −90 mV, PV cells): 188±54%
- IKH current density (IKH; at −120 mV, 1 μM carbachol, GTP-containing pipettes (before −6.2±1.0)): −10.0±1.2 pA pF^−1
- IKH current density (IKH; at −120 mV, 1 μM carbachol, GTP-free pipettes (before −8.3±0.7)): −8.3±1.1 pA pF^−1
- IKH current density (IKH; at −120 mV, 1 μM carbachol, LA cells (baseline −1.9±0.4)): −4.9±1.1 pA pF^−1
- IKH current density (IKH; at −120 mV, 1 μM carbachol, PV cells (baseline −2.6±0.5)): −5.0±0.6 pA pF^−1
- IKH density (IKH; at −120 mV, carbachol, cells incubated without PTX at 37° C. >9 h (before −6.2±1.8)): −11.5±1.8 pA pF^−1
- IKH density (IKH; at −120 mV, carbachol, cells preincubated with PTX): −5.5±1.2 pA pF−1
- increase of IKH tail currents (IKH; carbachol, PTX-treated cells): 127±37%
- increase of IKH tail currents (IKH; carbachol, cells incubated without PTX): 538±170%
- IKH tail current (IKH; after carbachol, PTX-free conditions (before 2.1±0.7)): 8.4±1.6 pA pF^−1
- IKH tail current (IKH; after carbachol, PTX-preincubated cells): 3.4±0.9 pA pF^−1
- effect on IKH (in words) (IKH): increased

Compound: pertussis toxin
- IKH activation by carbachol after pertussis toxin pretreatment (in words) (IKH; 1 μM carbachol): prevented
- IKH activation by carbachol after pertussis toxin pretreatment (in words) (IKH; 1 μM carbachol, listed as PTX): attenuated
- IKH density (IKH; at −120 mV, cells preincubated with PTX, before carbachol): −6.4±0.8 pA pF^−1
- IKH tail current (IKH; PTX-preincubated cells, before carbachol): 1.8±0.6 pA pF^−1

From patent publication US20060094003A1, “Acetylcholine-dependent current as a novel ionic target for atrial fibrillation” (priority 2004, published 2006)
